Assay results taken from PMC11638952, “Fine-Tuning the Function of Farnesene Synthases for Selective Synthesis of Farnesene Stereoisomers” (Journal of Agricultural and Food Chemistry, 2024).

What was measured:
Conditions in all cases: 50 mM Tris-HCl pH 8.0, 10 μM MgCl2, 30 °C, 10 min, FPP 2-80 μM
AaFS [1] = target: T1, AaFS (Artemisia annua, UniProt Q9FXY7)
T1 construct: gene CASC125
Excerpt: (§1) steady-state kinetics, product quantified by peak area after hexane extraction on AaFS

AaFS [2] = target: T2, AaFS (Artemisia annua, UniProt Q9FXY7, L326I, form not given)
T2 construct: gene CASC125
Excerpt: as §1

AaFS [3] = target: T3, AaFS (Artemisia annua, UniProt Q9FXY7, M436I, form not given)
T3 construct: gene CASC125
Excerpt: as §1

AaFS [4] = target: T4, AaFS (Artemisia annua, UniProt Q9FXY7, W299C, form not given)
T4 construct: gene CASC125
Excerpt: as §1

T2 sequence (Q9FXY7 whole entry L326I, form open): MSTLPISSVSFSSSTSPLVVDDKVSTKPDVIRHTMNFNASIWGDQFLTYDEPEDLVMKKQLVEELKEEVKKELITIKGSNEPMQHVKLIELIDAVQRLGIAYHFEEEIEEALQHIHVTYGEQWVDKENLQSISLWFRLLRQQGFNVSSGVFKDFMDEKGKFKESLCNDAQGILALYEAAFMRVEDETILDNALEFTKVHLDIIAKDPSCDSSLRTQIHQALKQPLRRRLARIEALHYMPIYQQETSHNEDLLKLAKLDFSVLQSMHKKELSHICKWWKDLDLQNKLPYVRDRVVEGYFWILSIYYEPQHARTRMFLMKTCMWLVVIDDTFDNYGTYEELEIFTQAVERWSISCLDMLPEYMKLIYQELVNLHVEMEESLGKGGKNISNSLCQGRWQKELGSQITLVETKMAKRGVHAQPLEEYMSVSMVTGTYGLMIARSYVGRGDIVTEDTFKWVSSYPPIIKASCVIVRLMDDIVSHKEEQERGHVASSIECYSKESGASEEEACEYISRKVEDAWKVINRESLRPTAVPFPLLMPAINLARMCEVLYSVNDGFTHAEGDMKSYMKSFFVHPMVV
T4 sequence (Q9FXY7 whole entry W299C, form open): as the sequence (Q9FXY7 whole entry L326I, form open) above, with W299C, I326L counted along it
T3 sequence (Q9FXY7 whole entry M436I, form open): as the sequence (Q9FXY7 whole entry L326I, form open) above, with I326L, M436I counted along it
T1 sequence (Q9FXY7 whole entry): as the sequence (Q9FXY7 whole entry L326I, form open) above, with I326L counted along it

Structure (SMILES): CC(C)=CCC/C(C)=C/CC/C(C)=C/CO[P@@](=O)(O)OP(=O)(O)O (stereo in doubt) [FPP, farnesyl pyrophosphate]
- Km (AaFS [1]): 14.3 ± 2.3 µM
- Km (AaFS [2]): 6.75 ± 3.7 µM
- Km (AaFS [3]): 7.64 ± 4.8 µM
- Km (AaFS [4]): 21.3 ± 1.8 µM
